The text below walks through data of the supplement of paper PMC6045584.

± gives the standard deviation of the averaged measurements.

Compound in assay [1]: COc1cc([C@@H]2c3cc4c(cc3[C@@H](O[C@@H]3O[C@@H]5CO[C@@H](C)O[C@H]5[C@H](O)[C@H]3O)[C@H]3COC(=O)[C@H]23)OCO4)cc(OC)c1O [ETOPOSIDE]
Put plainly: surviving fraction relative to DMSO-only wells; higher = less growth inhibition. The following applies: exposure time: 5 days. The procedure, abridged: (§1)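 Tumour cell lines were grown to log phase and seeded at 250–500 cells per well in 384-well plates. They were exposed continuously to inhibitors at 0.5, 1, 5, 10, 50, 100, 500 and 1000 nM for five days, beginning 24 hours after seeding. Surviving fraction is CellTiter-Glo luminescence normalised to the median of DMSO-only wells.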

Compound in assay [2]: O=C(O)CC[C@H]1CC[C@@](c2cc(F)ccc2F)(S(=O)(=O)c2ccc(Cl)cc2)CC1 [MK0752]
The assay is described as above. The settings on record: exposure time: 5 days. The method in brief: as §1

Turning to C33A CERVIX, the surviving fraction in assay [1] (0.5 nM) amounted to 0.794 ± 0.11; in assay [1] (1 nM) it was 0.967 ± 0.064; in assay [1] (5 nM) it was 0.918 ± 0.016; in assay [1] (10 nM), 1.05 ± 0.071; in assay [1] (50 nM) it was 0.923 ± 0.045; in assay [1] (100 nM), 0.726 ± 0.024. Further, the surviving fraction in assay [1] (500 nM) turned out to be 0.251 ± 0.027; in assay [1] (1000 nM), 0.155 ± 0.01; in assay [2] (0.5 nM), 1.12 ± 0.13; in assay [2] (1 nM) it was 1.11 ± 0.08; in assay [2] (5 nM) it was 1.06 ± 0.14; in assay [2] (10 nM) it was 1.19 ± 0.083. For the same test system, the surviving fraction in assay [2] (50 nM) came to 1.09 ± 0.066; in assay [2] (100 nM), 1.19 ± 0.18; in assay [2] (500 nM), 1.08 ± 0.16; in assay [2] (1000 nM), 1.13 ± 0.1.
For the test system CAL72 BONE, the surviving fraction in assay [1] (0.5 nM) stood at 1.05 ± 0.026; in assay [1] (1 nM) it was 1.05 ± 0.037; in assay [1] (5 nM), 1.06 ± 0.048; in assay [1] (10 nM) it was 1.05 ± 0.05; in assay [1] (50 nM) it was 1.07 ± 0.051; in assay [1] (100 nM) it was 1.07 ± 0.039. Moreover, the surviving fraction is 0.684 ± 0.029 in assay [1] (500 nM); 0.358 ± 0.03 in assay [1] (1000 nM); 1.04 ± 0.025 in assay [2] (0.5 nM); 1.1 ± 0.043 in assay [2] (1 nM); 1.084 ± 0.0046 in assay [2] (5 nM); 1.09 ± 0.021 in assay [2] (10 nM). Moreover, the surviving fraction in assay [2] (50 nM) was 1.11 ± 0.018; in assay [2] (100 nM), 1.14 ± 0.034; in assay [2] (500 nM) it was 1.102 ± 0.011; in assay [2] (1000 nM), 1.12 ± 0.04.
For G292 BONE, the surviving fraction was found to be 0.964 ± 0.035 in assay [1] (0.5 nM); 0.976 ± 0.041 in assay [1] (1 nM); 1 ± 0.087 in assay [1] (5 nM); 0.978 ± 0.06 in assay [1] (10 nM); 0.942 ± 0.02 in assay [1] (50 nM); 0.796 ± 0.014 in assay [1] (100 nM). For the same test system, the surviving fraction in assay [1] (500 nM) turned out to be 0.437 ± 0.019; in assay [1] (1000 nM), 0.352 ± 0.012; in assay [2] (0.5 nM) it was 0.974 ± 0.015; in assay [2] (1 nM), 1.03 ± 0.053; in assay [2] (5 nM), 1.05 ± 0.033; in assay [2] (10 nM), 1.05 ± 0.013. In addition, the surviving fraction in assay [2] (50 nM) turned out to be 1.01 ± 0.018; in assay [2] (100 nM) it was 0.989 ± 0.019; in assay [2] (500 nM) it was 0.914 ± 0.037; in assay [2] (1000 nM), 0.86 ± 0.037.
In the case of HCC1395 BREAST, the surviving fraction in assay [1] (0.5 nM) worked out at 0.983 ± 0.081; in assay [1] (1 nM), 0.994 ± 0.1; in assay [1] (5 nM) it was 1.02 ± 0.12; in assay [1] (10 nM), 1 ± 0.12; in assay [1] (50 nM) it was 1.06 ± 0.14; in assay [1] (100 nM) it was 1.04 ± 0.056. The surviving fraction in assay [1] (500 nM) was 0.937 ± 0.12; in assay [1] (1000 nM) it was 0.926 ± 0.13; in assay [2] (0.5 nM), 1.09 ± 0.017; in assay [2] (1 nM), 0.987 ± 0.16; in assay [2] (5 nM) it was 1.08 ± 0.036; in assay [2] (10 nM), 1.1 ± 0.099. Moreover, the surviving fraction stood at 1.06 ± 0.011 in assay [2] (50 nM), 1.06 ± 0.15 in assay [2] (100 nM), 0.975 ± 0.028 in assay [2] (500 nM) and 0.925 ± 0.12 in assay [2] (1000 nM).
Consider HUO3N1 BONE, for which the surviving fraction was 0.956 ± 0.017 in assay [1] (0.5 nM); 0.936 ± 0.05 in assay [1] (1 nM); 0.982 ± 0.06 in assay [1] (5 nM); 1.01 ± 0.042 in assay [1] (10 nM); 1.01 ± 0.019 in assay [1] (50 nM); 0.96 ± 0.057 in assay [1] (100 nM). Also, the surviving fraction in assay [1] (500 nM) is 0.519 ± 0.01; in assay [1] (1000 nM), 0.376 ± 0.012; in assay [2] (0.5 nM), 1.02 ± 0.023; in assay [2] (1 nM) it was 1.03 ± 0.021; in assay [2] (5 nM), 1.051 ± 0.0083; in assay [2] (10 nM), 1.08 ± 0.042. For the same test system, the surviving fraction turned out to be 1.07 ± 0.042 in assay [2] (50 nM), 1.08 ± 0.052 in assay [2] (100 nM), 1.01 ± 0.02 in assay [2] (500 nM) and 0.9563 ± 0.0042 in assay [2] (1000 nM).
With LNCAP PROSTATE, the surviving fraction in assay [1] (0.5 nM) was found to be 0.86 ± 0.18; in assay [1] (1 nM), 0.951 ± 0.078; in assay [1] (5 nM), 0.868 ± 0.13; in assay [1] (10 nM) it was 0.94 ± 0.058; in assay [1] (50 nM), 0.9023 ± 0.0057; in assay [1] (100 nM), 0.77 ± 0.051. For the same test system, the surviving fraction in assay [1] (500 nM) amounted to 0.438 ± 0.046; in assay [1] (1000 nM) it was 0.301 ± 0.025; in assay [2] (0.5 nM), 0.936 ± 0.14; in assay [2] (1 nM) it was 0.927 ± 0.12; in assay [2] (5 nM), 1.03 ± 0.26; in assay [2] (10 nM) it was 0.887 ± 0.09. For the same test system, the surviving fraction worked out at 1.01 ± 0.098 in assay [2] (50 nM), 1.02 ± 0.074 in assay [2] (100 nM), 1.04 ± 0.21 in assay [2] (500 nM) and 1.01 ± 0.12 in assay [2] (1000 nM).
Turning to SCC003 HEADNECK, the surviving fraction in assay [1] (0.5 nM) was determined as 1.04 ± 0.092; in assay [1] (1 nM), 1.05 ± 0.13; in assay [1] (5 nM), 1.11 ± 0.069; in assay [1] (10 nM) it was 1.07 ± 0.051; in assay [1] (50 nM), 1.1 ± 0.063; in assay [1] (100 nM) it was 1.08 ± 0.068. The surviving fraction in assay [1] (500 nM) came to 0.849 ± 0.15; in assay [1] (1000 nM), 0.604 ± 0.041; in assay [2] (0.5 nM), 1.19 ± 0.02; in assay [2] (1 nM), 1.12 ± 0.15; in assay [2] (5 nM), 1.14 ± 0.045; in assay [2] (10 nM) it was 1.13 ± 0.055. In addition, the surviving fraction stood at 1.19 ± 0.12 in assay [2] (50 nM), 1.24 ± 0.11 in assay [2] (100 nM), 1.19 ± 0.13 in assay [2] (500 nM) and 1.2 ± 0.039 in assay [2] (1000 nM).
